Several values for one entry are separate records, joined by “and”; a condition that tells them apart may be missing. Equal entries are not always repeated. Where no end group is shown, it is not given here.
Columns and labels:
Assay type in all cases: cell-based, rat
[1] = system: Caspase 3 (Casp3) gene expression; assay: Caspase 3 gene expression by real-time RT-PCR; conditions: 25 µM
Experimental: (§1) Total RNA was extracted using an ABI 6100 Nucleic Acid PrepStation according to the manufacturer’s protocol (Applied Biosystems Inc., Foster City, CA, USA). Total RNA from cells was isolated and stored at −80 °C. The quality of isolated RNA was estimated by the ratio A260/A280 and was in the range of 1.9–2.1. RNA integrity was evaluated by agarose gel electrophoresis according to MIQE guidelines using the “bleach gel” method. RNA concentrations were determined from the A260. One microgram of total RNA was reverse transcribed using Applied Biosystems High-Capacity cDNA Archive Kit.
(§2) To assess relative gene expression in neurons, quantitative real-time RT-PCR analysis was performed with an Applied Biosystems Prism 7500 Fast Sequence Detection System using TaqMan® universal PCR master mix according to the manufacturer’s specifications. […] Levels of RNA expression were determined using the 7500 Fast System SDS software version 1.3.1 (Applied Biosystems) according to the 2^−ΔΔCt method. […] The results from three independent repeat assays, performed in different plates each using different cDNA’s from the cultures analyzed, were averaged to produce a single mean quantity value for each mRNA.

[2] = system: A1R (ADORA1) gene expression; assay: A1R gene expression by real-time PCR; conditions: 25 µM, 24 or 48 h
Experimental: as §1, §2

[3] = system: Group I mGluR/PLC signalling pathway; assay: Phospholipase C activity (IP3 accumulation), basal and DHPG-stimulated
Experimental: This method was previously reported and is divided into two well-defined steps: IP3 accumulation: culture medium was discharged, and cells were washed twice with DMEM containing 20 mM HEPES, pH 7.4. After 20 min at 37 °C, different ligands were added to cells for 10 min at 37 °C to analyse their effect on PLC activity in a final reaction volume of 300 μL. The enzymatic reaction was stopped and cells lysed by adding 50 μL 2.8 M perchloric acid and placing plates on ice for 30 min. The medium was neutralized with 70 μ[…] Tris-HCl, 2 M KOH, and 60 mM EGTA, transferred to Eppendorf tubes and centrifuged at 12,000× g for 10 min. The supernatant was then collected to determine the IP3 level. IP3 level determination: IP3 levels in cells were determined as previously reported by Palmer and modified by […] [100]. Incubation of [^3H]IP3 (0.2 pmol; 3000-5000 cpm) in assay buffer (100 mM Tris-HCl, 4 mM EDTA, 4 mM EGTA, 4 mg/mL BSA, pH 9.0), binding protein (500-600 μg), and 25-50 μL of supernatant obtained from IP3 accumulation assay was carried out. Samples were incubated at 4 °C for 60 min and centrifuged at 12,000× g for 10 min. Pellets were suspended in 100 μL 0.2% SDS and transferred to scintillation vials to measure radioactivity. A standard curve was made with known [^3H]IP3 concentrations (0.25-10 μM). Nonspecific binding was determined in the presence of 10 μM unlabeled IP3. Binding protein was obtained from bovine suprarenal capsules according to Palmer's protocol.

CREB gene expression = CREB gene expression by real-time PCR; conditions: 25 µM, 24 or 48 h
Experimental: as §1, §2

adenylyl cyclase (AC) = assay: Adenylyl cyclase activity, basal and forskolin-stimulated
Experimental: AC activity was determined as previously reported by Murphy with minor modifications. Briefly, control or treated cells were pre-incubated in serum-free DMEM buffered with 20 mM HEPES, pH 7.4, supplemented with 100 µM Ro 20-1724 and 2 U/mL ADA, for 10 min at 37 °C. AC activity was stimulated using specific ligands for 15 min at 37 °C in a final volume of 250 µL. The reaction was stopped by adding 500 µL 0.1 M HCl in absolute ethanol. Once centrifuged at 12,000× g for 10 min, supernatants were evaporated in speed-vac and resuspended in 150 µL assay buffer (50 mM Tris-HCl, 4 mM EDTA). Fifty microliters of the sample were used to determine cAMP accumulation using protein kinase A as a cAMP binding protein and [^3H]cAMP as radioligand. A cAMP standard curve (0–16 pmol) was prepared in the same buffer. Incubation was stopped by rapid filtration through Whatman GF/B filters.

GSNKGAIIGLM [Aβ25-35]
caspase 3 gene expression ([1]; 24 h): significant increase | caspase 3 gene expression ([1]; 48 h): significant increase | A1R gene expression [2]: significantly increased | decrease in DHPG-stimulated PLC activity ([3]; 25 µM, 24 h, 30 µM DHPG for 10 min): 13% | basal PLC activity ([3]; neurons exposed to 25 µM for 24 h, unstimulated, absence of DHPG): 17.61 ± 4.85 pmol/mg/min and 17.6 ± 4.8 pmol/mg/min | CREB gene expression (CREB gene expression): decrease | basal or forskolin-stimulated AC activity vs control neurons (adenylyl cyclase (AC); 25 µM, 24 h, 5 µM forskolin): No differences | basal AC activity (adenylyl cyclase (AC); neurons exposed to 25 µM for 24 h): 2.33 ± 0.55 pmol/mg/min

Reference: paper PMC8234864, “Early Effects of the Soluble Amyloid β25-35 Peptide in Rat Cortical Neurons: Modulation of Signal Transduction Mediated by Adenosine and Group I Metabotropic Glutamate Receptors” (International Journal of Molecular Sciences, 2021)
